According to patent US11613768B2, “Microbial production of 2-phenylethanol from renewable substrates” (Arizona Board of Regents on behalf of Arizona State …, priority 2017, dated 2023):

Experiments:
[1] = target: TyrB (Escherichia coli, UniProt P04693); conditions: TyrB (Phe aminotransferase), substrate phenylpyruvate; cited from earlier work
[2] = target: T1, ARO10 (Saccharomyces cerevisiae, UniProt Q06408); conditions: ARO10 (PPDC), substrate phenylpyruvate; cited from earlier work
T1 sequence (Q06408 1-635): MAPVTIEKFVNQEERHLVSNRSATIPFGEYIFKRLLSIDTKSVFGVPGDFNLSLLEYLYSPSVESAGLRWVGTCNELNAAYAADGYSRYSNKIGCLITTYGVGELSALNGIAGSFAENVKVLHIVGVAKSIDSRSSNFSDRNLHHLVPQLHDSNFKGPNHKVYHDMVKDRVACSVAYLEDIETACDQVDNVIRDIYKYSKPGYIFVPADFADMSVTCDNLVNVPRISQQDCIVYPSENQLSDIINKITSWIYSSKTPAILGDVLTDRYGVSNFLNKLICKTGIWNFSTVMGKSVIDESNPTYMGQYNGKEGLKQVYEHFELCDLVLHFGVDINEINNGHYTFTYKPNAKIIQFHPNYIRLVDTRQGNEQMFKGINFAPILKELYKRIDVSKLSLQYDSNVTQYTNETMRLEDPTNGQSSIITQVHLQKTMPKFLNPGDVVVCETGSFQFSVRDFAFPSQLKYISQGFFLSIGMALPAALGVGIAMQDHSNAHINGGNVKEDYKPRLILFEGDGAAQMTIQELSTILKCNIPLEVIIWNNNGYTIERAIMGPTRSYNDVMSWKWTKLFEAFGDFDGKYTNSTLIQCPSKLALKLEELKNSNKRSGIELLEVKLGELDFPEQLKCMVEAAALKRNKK

[3] = test system: E. coli NST74; test: Assaying 2PE toxicity: growth challenge with exogenous 2PE; format: cell-based, Escherichia coli
Method: Error bars reported at one standard deviation from triplicate experiments.
The effects of 2PE on E. coli growth rate and yield was determined by monitoring the impacts of its exogenous addition at increasing final concentrations on growing cultures. Approximately 1 ml of an E. coli NST74 seed culture was used to inoculate 50 ml of LB broth in a 250 mL shake flask. When cultures reached OD600˜0.6, 2PE was added to the flasks at an array of final concentrations ranging from 0 to 2 g/L. Culturing then resumed for an additional 6 h with periodic monitoring of OD600.
To assess if 2PE production in these initial strains was perhaps limited by end-product inhibition, a growth challenge study was performed determine to the response of E. coli growth to the addition of exogenous 2PE at a range of increasing final concentrations (FIG. 4).

[4] = test system: E. coli; conditions: prior report, Kang et al., 2014; cited from earlier work
[5] = exogenous 2PE added at OD600~0.6, LB broth, 6 h monitoring of OD600

TyrB, sequence (P04693 whole entry): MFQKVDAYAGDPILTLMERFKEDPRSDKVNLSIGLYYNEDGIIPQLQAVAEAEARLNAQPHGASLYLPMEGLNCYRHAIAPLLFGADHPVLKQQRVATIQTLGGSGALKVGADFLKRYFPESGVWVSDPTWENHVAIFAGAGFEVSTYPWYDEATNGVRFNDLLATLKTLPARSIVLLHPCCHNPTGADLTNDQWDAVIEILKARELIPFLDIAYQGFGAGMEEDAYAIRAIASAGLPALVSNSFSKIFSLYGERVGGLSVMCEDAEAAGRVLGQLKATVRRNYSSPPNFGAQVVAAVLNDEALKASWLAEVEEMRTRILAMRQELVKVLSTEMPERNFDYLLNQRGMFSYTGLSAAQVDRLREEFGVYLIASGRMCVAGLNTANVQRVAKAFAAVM

SMILES	Km [1] [µM]	Km [2] [µM]	toxicity threshold ([3]; E. coli growth) [g/L]	2PE concentration at which growth rate and yield were reduced [3, 5] [g/L]	2PE concentration at which severe growth inhibition occurred [3, 5]	level reported to inhibit E. coli [4] [µg/mL]
O=C(O)C(=O)Cc1ccccc1 [phenylpyruvate]	12	100	–	–	–	–
OCCc1ccccc1 [2PE, 2-phenylethanol]	–	–	~2	1	about 2 g/L	~1000
